The target in assay [1] is T1, hTrkB (Homo sapiens, UniProt Q16620). In words: PathHunter cell-based assay, inhibition of SH2 domain protein recruitment, hTrkB-p75 U2OS cells. Further details: host or cells: U2OS (human bone osteosarcoma epithelial cells), PathHunter hTrkB-p75. From the text:
(§1) In Vitro Inhibition of SH2 Domain Protein Recruitment in Human Bone Osteosarcoma Epithelial Cells by Human Tropomyosin Receptor Kinase (hTrk) Inhibitors
(§2) Activation of hTrkA, TrkB or TrkC is examined using PathHunter® (DiscoverX) enzyme fragment complementation technology. In this approach, one fragment of β-galactosidase (β-gal) ProLink (PK) is fused to the C-terminal of the Trk receptor and co-expressed with a phosphotyrosine SH2 domain protein fused with the remaining fragment of β-gal, Enzyme Acceptor (EA), in human Bone Osteosarcoma Epithelial (hU2OS) cells also expressing the p75 neurotrophic receptor (DiscoverX). Activation of hTrk receptors by agonists results in receptor phosphorylation. The SH2-EA fusion protein binds the phosphorylated hTrk receptor resulting in complementation of PK and EA to form an active β-gal enzyme. β-gal enzymatic activity is quantitatively measured using a chemiluminescent substrate in the PathHunter® detection kit (DiscoverX). […]
(§3) Inhibition of hTrk kinase activity: The activity of hTrkA and hTrkC kinase is quantitated using Pathhunter® technology (DiscoverX) as per vendor instructions.
(§4) Briefly, on the assay day, compounds for dose-response studies are serially diluted in dimethyl sulfoxide (1:3 for 10 concentrations) using an acoustic dispensing instrument Echo Access (Labcyte) and dispensed into cell plates that are subsequently incubated at room temperature (RT) for one hour. […] Pathhunter® detection reagents (DiscoverX) are added and plates are read in an ENVISION® plate reader (Perkin-Elmer) at 700 nm after 1 h incubation at RT in the dark. […]
(§5) Data Analysis: The data are converted into % Inhibition and relative IC50 values are calculated from the top-bottom range of the concentration response curve using a four-parameter logistic curve fitting program (GENEDATA SCREENER® v13.0.5) with the equation Y=Bottom+(Top-Bottom)/(1+10^((Log IC50−X)*HillSlope)). […]
Target sequence in this assay (Q16620 32-822): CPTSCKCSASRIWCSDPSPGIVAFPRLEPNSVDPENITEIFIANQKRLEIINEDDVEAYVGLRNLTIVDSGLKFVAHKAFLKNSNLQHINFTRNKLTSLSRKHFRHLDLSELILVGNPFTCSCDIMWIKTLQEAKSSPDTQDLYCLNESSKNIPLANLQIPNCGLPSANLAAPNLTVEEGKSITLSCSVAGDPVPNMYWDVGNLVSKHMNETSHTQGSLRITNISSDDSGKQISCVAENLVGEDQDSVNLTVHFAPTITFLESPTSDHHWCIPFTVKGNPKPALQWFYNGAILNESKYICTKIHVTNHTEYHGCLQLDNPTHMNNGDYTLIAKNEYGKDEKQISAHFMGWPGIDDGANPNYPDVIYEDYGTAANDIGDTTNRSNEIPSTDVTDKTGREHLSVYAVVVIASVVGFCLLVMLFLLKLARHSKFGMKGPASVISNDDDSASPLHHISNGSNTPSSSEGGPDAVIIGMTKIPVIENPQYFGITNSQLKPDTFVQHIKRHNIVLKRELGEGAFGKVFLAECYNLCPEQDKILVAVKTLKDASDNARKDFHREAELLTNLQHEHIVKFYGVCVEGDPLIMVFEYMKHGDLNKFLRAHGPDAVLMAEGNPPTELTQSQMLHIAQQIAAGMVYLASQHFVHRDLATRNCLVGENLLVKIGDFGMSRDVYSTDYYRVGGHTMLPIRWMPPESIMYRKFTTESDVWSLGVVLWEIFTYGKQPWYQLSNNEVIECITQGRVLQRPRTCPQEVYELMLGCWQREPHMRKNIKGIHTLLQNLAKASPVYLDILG

Assay [2] concerns the target T2, hTrkC (Homo sapiens, UniProt Q16288). In words: PathHunter cell-based assay, inhibition of SH2 domain protein recruitment, hTrkC-p75 U2OS cells. Further details: host or cells: U2OS (human bone osteosarcoma epithelial cells), PathHunter hTrkC-p75.
Source text: as §1, §2, §3, §4, §5
Target sequence in this assay (Q16288 32-839): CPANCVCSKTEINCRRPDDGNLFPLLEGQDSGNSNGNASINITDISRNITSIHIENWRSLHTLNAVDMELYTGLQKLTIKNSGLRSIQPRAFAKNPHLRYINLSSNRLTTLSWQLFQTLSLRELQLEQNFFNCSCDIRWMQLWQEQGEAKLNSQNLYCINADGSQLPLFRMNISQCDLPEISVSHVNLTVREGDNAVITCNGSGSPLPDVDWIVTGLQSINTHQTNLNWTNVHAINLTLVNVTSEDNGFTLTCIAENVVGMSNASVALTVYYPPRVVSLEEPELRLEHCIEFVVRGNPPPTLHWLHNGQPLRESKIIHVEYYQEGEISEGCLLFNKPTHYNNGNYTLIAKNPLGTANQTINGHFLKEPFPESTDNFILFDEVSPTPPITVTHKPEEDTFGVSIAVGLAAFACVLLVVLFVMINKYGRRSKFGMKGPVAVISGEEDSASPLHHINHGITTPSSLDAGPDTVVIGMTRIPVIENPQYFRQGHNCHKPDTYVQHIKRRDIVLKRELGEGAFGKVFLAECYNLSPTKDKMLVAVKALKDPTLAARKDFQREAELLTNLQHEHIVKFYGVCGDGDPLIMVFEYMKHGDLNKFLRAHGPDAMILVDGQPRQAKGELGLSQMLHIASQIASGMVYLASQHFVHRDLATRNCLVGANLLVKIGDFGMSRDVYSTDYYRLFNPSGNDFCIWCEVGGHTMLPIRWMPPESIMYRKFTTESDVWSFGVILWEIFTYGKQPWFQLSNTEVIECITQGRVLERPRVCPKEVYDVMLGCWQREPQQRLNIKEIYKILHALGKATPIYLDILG

Assay [3] has as its target T2, hTrkC. Description: hTrk kinase TR-FRET assay (headed Binding Assays), hTrkC kinase domain. As to conditions: hTrkC kinase domain aa 510-825, N = 1, read-out: Relative IC50 hTrkC, Binding Assays. Format: biochemical. Also noted: hTrkC, aa: 510-825. From the text:
(§6) Human Tropomyosin Receptor Kinase (hTrkA, hTrkB, hTrkC) Assays to Examine hTrk Kinase Inhibitors
(§7) The reaction of non-phosphorylated hTrk kinase domains (hTrkA, aa: 441-796, hTrkB, aa: 526-838 or hTrkC, aa: 510-825) with a fluorescein-labeled poly-GT substrate (poly-GT, Invitrogen) generates a fluorescein-labeled phosphorylated product. Binding of the terbium-labeled antibody (Invitrogen) to the phosphorylated tyrosine product brings the terbium and fluorescein into proximity, resulting in an increase in time-resolved fluorescence resonance energy transfer (TR-FRET). In the presence of an inhibitor, formation of phosphorylated product is reduced, and the TR-FRET value is decreased.
(§8) Inhibition of hTrk kinase activity: The activity of human tropomyosin receptor hTrk kinase is quantitated using TR-FRET technology (Invitrogen) as per vendor instructions. Briefly, compounds for dose-response studies are serially diluted in dimethyl sulfoxide (1:2 for 20 concentrations) using an acoustic dispensing instrument Echo Access (Labcyte) and dispensed into ProxiPlate-384 plus plates (PerkinElmer). […] EDTA and terbium-labeled antibody are added and plates are incubated at RT for one hour after which the TR-FRET signal is detected using an ENVISION® plate reader (Perkin-Elmer). The ratio of fluorescence at 520 to 495 nm is calculated. […]
Target sequence in this assay (Q16288 510-825 isoform Q16288-3): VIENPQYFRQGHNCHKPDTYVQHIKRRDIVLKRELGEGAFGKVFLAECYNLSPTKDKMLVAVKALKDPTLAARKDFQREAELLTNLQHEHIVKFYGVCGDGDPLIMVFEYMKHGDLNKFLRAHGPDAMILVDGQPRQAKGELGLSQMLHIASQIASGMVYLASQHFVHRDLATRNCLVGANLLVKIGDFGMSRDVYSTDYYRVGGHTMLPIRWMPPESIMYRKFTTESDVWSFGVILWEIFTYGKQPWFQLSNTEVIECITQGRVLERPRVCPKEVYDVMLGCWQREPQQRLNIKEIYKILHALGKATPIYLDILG
(In general: In TR-FRET formats the signal depends on donor and acceptor labels being close together.)

For assay [4], the target named is T3, hTrkA (Homo sapiens, UniProt P04629). Description: PathHunter cell-based assay, inhibition of SH2 domain protein recruitment, hTrkA-p75 U2OS cells. Further details: host or cells: U2OS (human bone osteosarcoma epithelial cells), PathHunter hTrkA-p75.
Source text: as §1, §2, §3, §4, §5
Target sequence in this assay (P04629 33-796): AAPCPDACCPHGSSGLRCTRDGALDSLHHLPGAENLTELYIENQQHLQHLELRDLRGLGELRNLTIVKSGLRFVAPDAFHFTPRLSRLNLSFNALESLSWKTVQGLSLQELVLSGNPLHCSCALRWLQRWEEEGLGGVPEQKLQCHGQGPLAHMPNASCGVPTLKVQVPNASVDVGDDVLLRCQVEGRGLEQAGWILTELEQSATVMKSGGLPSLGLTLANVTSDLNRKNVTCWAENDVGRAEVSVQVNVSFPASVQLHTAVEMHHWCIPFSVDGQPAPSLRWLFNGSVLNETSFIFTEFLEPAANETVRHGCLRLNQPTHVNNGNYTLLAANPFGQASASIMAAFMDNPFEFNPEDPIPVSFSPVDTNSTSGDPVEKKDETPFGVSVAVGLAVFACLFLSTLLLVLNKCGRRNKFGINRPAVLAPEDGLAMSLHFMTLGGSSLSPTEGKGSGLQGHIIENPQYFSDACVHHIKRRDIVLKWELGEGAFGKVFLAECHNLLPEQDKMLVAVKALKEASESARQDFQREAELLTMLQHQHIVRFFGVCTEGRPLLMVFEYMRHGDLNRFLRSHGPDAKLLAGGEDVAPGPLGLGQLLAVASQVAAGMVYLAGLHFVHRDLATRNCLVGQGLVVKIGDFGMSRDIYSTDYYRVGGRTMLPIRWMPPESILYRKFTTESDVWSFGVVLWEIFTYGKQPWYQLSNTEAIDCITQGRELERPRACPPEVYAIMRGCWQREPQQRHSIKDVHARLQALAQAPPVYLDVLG

Assay [5] concerns the target T3, hTrkA. Description: hTrk kinase TR-FRET assay (headed Binding Assays), hTrkA kinase domain. The following applies: hTrkA kinase domain aa 441-796, N = 4, read-out: Relative IC50 hTrkA, Binding Assays. Further details: hTrkA, aa: 441-796. Format: biochemical.
Source text: as §6, §7, §8
Target sequence in this assay (P04629 441-796): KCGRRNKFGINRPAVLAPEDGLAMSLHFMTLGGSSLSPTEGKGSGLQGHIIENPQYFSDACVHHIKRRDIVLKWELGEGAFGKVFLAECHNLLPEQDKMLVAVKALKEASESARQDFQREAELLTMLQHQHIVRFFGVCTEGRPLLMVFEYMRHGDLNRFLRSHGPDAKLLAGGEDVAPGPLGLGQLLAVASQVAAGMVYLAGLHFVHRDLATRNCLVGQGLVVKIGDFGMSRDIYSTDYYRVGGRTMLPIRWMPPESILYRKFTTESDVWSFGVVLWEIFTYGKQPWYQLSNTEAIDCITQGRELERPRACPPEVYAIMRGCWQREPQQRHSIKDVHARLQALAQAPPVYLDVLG

The target of assay [6] is T1, hTrkB. In words: hTrk kinase TR-FRET assay (headed Binding Assays), hTrkB kinase domain. Format: biochemical. Also noted: hTrkB, aa: 526-838. The following applies: hTrkB kinase domain aa 526-838, N = 1, read-out: Relative IC50 hTrkB, Binding Assays.
Source text: as §6, §7, §8
Target sequence in this assay (Q16620 510-822): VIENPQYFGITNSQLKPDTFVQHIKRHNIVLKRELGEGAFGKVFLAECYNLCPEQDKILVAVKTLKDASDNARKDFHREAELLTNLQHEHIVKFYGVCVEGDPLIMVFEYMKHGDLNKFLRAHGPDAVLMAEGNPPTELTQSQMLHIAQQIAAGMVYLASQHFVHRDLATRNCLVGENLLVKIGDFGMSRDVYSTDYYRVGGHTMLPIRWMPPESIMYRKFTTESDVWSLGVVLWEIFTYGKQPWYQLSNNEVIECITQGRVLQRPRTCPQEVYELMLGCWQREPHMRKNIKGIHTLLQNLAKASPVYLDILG

The target of a further assay is Trk A (Homo sapiens, UniProt P04629). Description: Trk A IC50 values listed in Table 2 of U.S. Pat. No. 9,815,846. As to conditions: 14 divided by 0.069; phenyl ring versus pyridine ring.
The mark [7] stands for this setting: Table 2 comparative data, Example 1 values are the PathHunter values of Table 1, read-out: hTrkB IC50.
Setting [8] is: Table 2 comparative data, Example 1 values are the PathHunter values of Table 1, read-out: hTrkC IC50.
Where [9] appears, read: Table 2 comparative data, Example 1 values are the PathHunter values of Table 1, read-out: hTrkA IC50.

Each structure is given as a SMILES string.

The term IC50 denotes the concentration at which inhibition is half-maximal.

Trk A, sequence (P04629 33-796, species assumed): as the sequence (P04629 33-796) above

Take `Cn1ccc(-c2cc(C(=O)Nc3cncc(C(N)=O)c3-c3ccccn3)c(F)cc2C(F)(F)F)n1` [Example 1, 5-[[2-fluoro-5-(1-methylpyrazol-3-yl)-4-(trifluoromethyl)benzoyl]amino]-4-(2-pyridyl)pyridine-3-carboxamide]: the IC50 on hTrkB [1] (hU2OS hTrkB-p75 cells, hBDNF 20 ng/ml, N = 25, read-out: Relative IC50 hTrkB, PathHunter cell-based assay) is 6700 nM; on hTrkC [2] (hU2OS hTrkC-p75 cells, hNT-3 29 ng/ml, N = 24, read-out: Relative IC50 hTrkC, PathHunter cell-based assay), 9010 nM; on hTrkC [3], 8360 nM; on hTrkA [4] (hU2OS hTrkA-p75 cells, hNGF 27 ng/ml, N = 32, read-out: Relative IC50 hTrkA, PathHunter cell-based assay), 1.24 nM; at hTrkA [5] it was 1.09 nM; at hTrkB [6], over 4290 nM.
Regarding `Cn1ccc(-c2cc(C(=O)Nc3cc4c(nc3-c3ccccc3)CCNC4=O)c(F)cc2C(F)(F)F)n1` [Example 152], the “effect on the potency at TrkA, Example 141 IC50 divided by Example 152 IC50” value on Trk A worked out at 202.9 fold.
Take `Cn1ccc(-c2cc(C(=O)Nc3cc4c(nc3-c3ccccn3)CCNC4=O)c(F)cc2C(F)(F)F)n1` [Example 141 of US Patent No. 9815846]: the IC50 at hTrkB [1] (setting [7]) is over 47900 nM; at hTrkC [2] (setting [8]), 37800 nM; at hTrkA [4] (setting [9]), 11.1 nM.
Taken in the same sequence, the figures for `Cn1ccc(-c2cc(C(=O)Nc3cc(C(N)=O)cnc3-c3ccccc3)ccc2C(F)(F)F)n1` [Example 89 of US Patent No. 9815846] were 713 nM, 452 nM and 1.55 nM.

Source of the values: patent US11498915B2, “TrkA Inhibitor” (Eli Lilly and Company, priority 2020, dated 2022).
